# Results taken from US8034926B2 (Abbott Laboratories, priority 2007, dated 2011).
# Entries after “also recorded” stand apart in the source; their conditions may differ.
# Key:
# [1] = loading and release of drug from 15 mm BiodivYsio drug delivery stents; assay type: physicochemical; details: 15 mm BiodivYsio stent
# Experimental: Twelve individual polymer-coated stents were placed on fixtures designed to hold the stent in a vertical position and the stents were immersed vertically in the drug solution for five minutes. The stents and fixtures were removed from the vials and excess drug solution was blotted away by contacting the stents with an absorbant material. The stents were then allowed to dry in air for 30 minutes in an inverted vertical position.
# The stents were removed from the fixtures, and each stent was placed into 50/50 acetonitrile/phosphate buffer (pH 5.1, 2.0 ml) and sonicated for one hour. The stems were removed from the solution and solutions were assayed for concentration of drug, which allowed calculation of the amount of drug originally on the stents. This method was independently shown to remove at least 95% of the drug from the stent coating. On average, the stents contained 60 micrograms of drug±20 micrograms.
# The drug-loaded stents were placed on the fixtures and placed into 0.01 M phosphate buffer (pH=6.0, 1.9 ml) in individual vials. These samples were placed onto an Eberbach shaker set at low speed to provide back-and-forth agitation. To avoid approaching drug saturation in the buffer, the stents were transferred periodically to fresh buffer vials at the following points: 15, 30, 45, 60, 120, 135, 150, 165, 180, 240, 390 minutes. The dissolution buffer vials were assayed by HPLC for the drug concentration at the end of the drug release period studied. The data, represented as % cumulative release of the drug as a function of time, is shown in tabular form below: […]
# [2] = test system: neointima formation in the coronary arteries of adult miniature swine; test: swine safety and efficacy study of drug dosages on in-stent neointima formation; assay type: in vivo, Yucatan miniature swine
# Experimental: The purpose of this example was to evaluate the safety and efficacy of different drug dosages on neointima formation. Drug was delivered from the BiodivYsio OC stent (15 mm) coated with AST-578. In-stent neointima formation was measured at […]; 3 days, 1 month, and 3 months in the coronary arteries of adult miniature swine. Forty (40) animals were studied at each time interval (10 animals per dose). Each animal received one drug-coated stent and one control stent. The control stent contained no drug.
# Potential local tissue toxicity was assessed at all time intervals by examining histopathologic changes in the stented region, adjacent coronary segments, perivascular tissue, and subserved myocardium. The mortality, angiographic implant and restudy data, histomorphometry data, and stent site histopathology were studied.
# [3] = release of drug from PC polymer-coated 316 L stainless steel coupons; assay type: physicochemical; details: PC polymer-coated 316 L coupon
# Source text: Rubber septa from lids from HPLC vials were removed from the vials and placed into glass vials so that the “Teflon” side faced up. These septa served as supports for the test samples. The test samples were 316 L, stainless steel coupons that had been previously coated with a biocompatible polymer containing phosphorylcholine side groups (PC polymer). Coronary stents are commonly made of 316 L stainless steel and can be coated with the PC polymer to provide a depot site for loading drugs. The coated coupons, which serve to simulate stents, were placed onto the septa. By using a glass Hamilton Syringe, a solution of A-179578 and ethanol (10 μl) was applied to the surface of each coupon. The solution contained A-179578 (30.6 mg) dissolved in 100% ethanol (3.0 ml). The syringe was cleaned with ethanol between each application. The cap to the glass vial was placed on the vial loosely, thereby assuring proper ventilation. The coupon was allowed to dry for a minimum of 1.5 hours. Twelve (12) coupons were loaded in this way, six being used to determine the average amount of drug loaded onto the device and six being used to measure the time needed to release the drug from the devices.
# The coupon was placed onto a 5210 Branson sonicator for one hour. The coupon was then removed from the solution, and the solution was assayed by HPLC.
# The time release studies were performed by immersing and removing the individual coupons from fresh aliquots (10.0 ml) of 0.01 M phosphate buffer at a pH of 6.0 at each of the following time intervals; 5, 15, 30 and 60 minutes. For the remaining time points of 120, 180, 240, 300, 360 minutes, volumes of 5.0 ml of buffer were used. To facilitate mixing during the drug release phase, the samples were placed onto a Eberbach shaker set at low speed. All solution aliquots were assayed by HPLC after the testing of the last sample was completed.
# The HPLC analysis was performed with a Hewlett Packard series 1100 instrument having the following settings: Injection Volume is 100 μl; Acquisition Time is 40 minutes; Flow Rate is 1.0 ml/min; Column Temperature is 40 degrees Celsius; Wavelength is 278 nm; Mobile Phase is 65% Acetonitrile/35% H20; and Column is YMC ODS-A S5 μm, 4.6×250 mm (Part No. Al2052546WT).
# [4] = test system: neointimal formation in porcine coronary arteries containing stents; test: porcine coronary stent model, histomorphometry at 28 days; assay type: in vivo
# Source text: The control stents are polymer-coated without drugs. This is important, for the polymer itself must not stimulate neointimal hyperplasia to a substantial degree. As the eluted drug disappears, an inflammatory response to the polymer could conceivably result in a late “catch-up phenomenon” where the restenosis process is not stopped, but instead slowed. This phenomenon would result in restenosis at late dates in human subjects.
# Stems were implanted in two blood vessels in each pig. Pigs used in this model were generally 2-4 months old and weighed 30-40 kg. Two coronary stents were thus implanted in each pig by visually assessing a “normal” stent:artery ratio of 1.1-1.2.
# Beginning on the day of the procedure, pigs were given oral aspirin (325 mg daily) and continued for the remainder of their course. General anesthesia was achieved by means of intramuscular injection followed by intravenous ketamine (30 mg/kg) and xylazine (3 mg/kg). Additional medication at the time of induction included atropine (1 mg) and flocillin (1 g) administered intramuscularly. During the stenting procedure, an intraarterial bolus of 10,000 units of heparin was administered.
# Arterial access was obtained by cutdown on the right external carotid and placement of an 8F sheath. After the procedure, the animals were maintained on a normal diet without cholesterol or other special supplementation.
# The BiodivYsio stent was used with nominal vessel target size of 3.0 mm. Two coronary arteries per pig were assigned at random to deployment of the stents. The stent was either a drug eluting stent (polymer plus drug stent) or a stent coated with a polymer only (polymer only stent). The stents were delivered by means of standard guide catheters and wires. The stent balloons were inflated to appropriate sizes for less than 30 seconds.
# Each pig had one polymer only stent and one polymer plus drug stent placed in separate coronary arteries, so that each pig would have one stent for drug and one for control. A sample size of 20 pigs total was chosen to detect a projected difference in neointimal thickness of 0.2 mm with a standard deviation of 0.15 mm, at a power of 0.95 and […] 0.02.
# Animals were euthanized at 28 days for histopathologic examination and quantification. Following removal of the heart from the perfusion pump system, the left atrial appendage was removed for access to the proximal coronary arteries. Coronary arterial segments with injuries were dissected free of the epicardium. Segments containing lesions were isolated, thereby allowing sufficient tissue to contain uninvolved blood vessel at either end. […]
# The severity of vessel injury and the neointimal response were measured by calibrated digital microscopy. […]
# [5] = pharmacokinetics after a single intravenous dose in cynomolgus monkey; details: in vivo, 2.5 mg/kg
# [6] = porcine coronary arteries, 28 days
compound,measurement,setting,value
"CO[C@H]1C[C@@H]2CC[C@@H](C)[C@@](O)(O2)C(=O)C(=O)N2CCCC[C@H]2C(=O)O[C@H]([C@H](C)C[C@@H]2CC[C@H](n3cnnn3)[C@H](OC)C2)CC(=O)[C@H](C)/C=C(\C)[C@@H](O)[C@@H](OC)C(=O)[C@H](C)C[C@H](C)/C=C/C=C/C=C/1C [ABT-578, 42-(1-tetrazolyl)-rapamycin]",% Cumulative Release of Drug,"[1]; 0.01 M phosphate buffer pH 6.0, 15 min",0.3%
same,% Cumulative Release of Drug,"[1]; 0.01 M phosphate buffer pH 6.0, 30 min",1.1%
same,% Cumulative Release of Drug,"[1]; 0.01 M phosphate buffer pH 6.0, 45 min",2.1%
same,% Cumulative Release of Drug,"[1]; 0.01 M phosphate buffer pH 6.0, 60 min",3.2%
same,% Cumulative Release of Drug,"[1]; 0.01 M phosphate buffer pH 6.0, 120 min",4.3%
same,% Cumulative Release of Drug,"[1]; 0.01 M phosphate buffer pH 6.0, 135 min",5.9%
same,% Cumulative Release of Drug,"[1]; 0.01 M phosphate buffer pH 6.0, 150 min",6.3%
same,% Cumulative Release of Drug,"[1]; 0.01 M phosphate buffer pH 6.0, 165 min",6.8%
same,% Cumulative Release of Drug,"[1]; 0.01 M phosphate buffer pH 6.0, 180 min",7.4%
same,local coronary arterial wall toxicity: medial necrosis or stent malapposition,"[2]; any dose group up to approximately 27 μg/mm stent length, any time interval",no local coronary arterial wall toxicity
same,histologic % stenosis vs control,"[2]; one month, dose group 3",tendency towards decreased
same,absolute intima area vs control,"[2]; one month, dose groups 3 and 4",trends for decreases
same,intima thickness vs control,"[2]; one month, dose groups 3 and 4",trends for decreases
same,Intima area normalized to injury score vs control,"[2]; one month, dose groups 3 and 4 (10 and 27 μg/mm)",significantly decreased
same,neointima formation in stented coronary arteries,"[2]; one month, locally eluted from stent",significant inhibitory effect; also recorded: reduced in-stent neointima formation
same,extent of endothelial recovery over the stent struts,"[2]; three days after implant, all dosages, scanning electron microscopy",did not appear retarded
same,persistent inhibitory effect on neointima,[2]; three months,weak tendency
"COC1CC2CCC(C)C(O)(O2)C(=O)C(=O)N2CCCCC2C(=O)OC(C(C)CC2CCC(n3cnnn3)C(OC)C2)CC(=O)C(C)C=C(C)C(O)C(OC)C(=O)C(C)CC(C)C=CC=CC=C1C (centres unmarked) [ABT-578, 42-(1-tetrazolyl)-rapamycin]",Percent Release,"[3]; 0.01 M phosphate buffer pH 6.0, 0.00 min",0.00%
same,Percent Release,"[3]; 0.01 M phosphate buffer pH 6.0, 5.00 min",1.87%
same,Percent Release,"[3]; 0.01 M phosphate buffer pH 6.0, 15.00 min",2.97%
same,Percent Release,"[3]; 0.01 M phosphate buffer pH 6.0, 30.00 min",3.24%
same,Percent Release,"[3]; 0.01 M phosphate buffer pH 6.0, 60.00 min",3.29%
same,Percent Release,"[3]; 0.01 M phosphate buffer pH 6.0, 180.00 min",4.36%
same,Percent Release,"[3]; 0.01 M phosphate buffer pH 6.0, 240.00 min",4.37%
same,Percent Release,"[3]; 0.01 M phosphate buffer pH 6.0, 300.00 min",6.34%
same,Percent Release,"[3]; 0.01 M phosphate buffer pH 6.0, 360.00 min",7.88%
same,lumen area vs polymer only stent,[4]; [6],greater lumen area
same,neointimal area vs polymer only stent,[4]; [6],lower neointimal area
same,neointimal thickness vs polymer only stent,[4]; [6],lower neointimal thickness
same,neointimal hyperplasia,[4]; stent with polymer in porcine coronary artery,reduction in neointimal hyperplasia
40-epi-N-[2′-pyridone]-rapamycin [Example 2-pyridone],AUC,[5],2550 ng·h/mL
"COC1CC2CCC(C)C(O)(O2)C(=O)C(=O)N2CCCCC2C(=O)OC(C(C)CC2CCC(n3ccc(=O)cc3)C(OC)C2)CC(=O)C(C)C=C(C)C(O)C(OC)C(=O)C(C)CC(C)C=CC=CC=C1C (stereo not drawn) [Example 4-pyridone, 40-epi-N-[4′-pyridone]-rapamycin]",AUC,[5],5590 ng·h/mL
